Assay results published in US20230303570A1, “KINASE INHIBITORS AND USES THEREOF” (ABM Therapeutics Corporation, priority 2020, published 2023).

Columns and labels:
c-Kit = c-Kit (Homo sapiens, UniProt P10721); test: cKit kinase mobility shift assay; type: biochemical
Procedure: The effect of the compounds on the activity of cKit, RET and AXL kinases were assessed by Mobility shift assay. • 1. 1× kinase base buffer and stop buffer for testing kinases were prepared • 1-1) 1× Kinase base buffer (50 mM HEPES, pH 7.5, 0.01% Triton X-100) • 1-2) Stop buffer (100 mM HEPES, pH 7.5, 0.015% Brij-35, 0.2% Coating Reagent #3, 50 mM EDTA) • 2. Compound and assay plate preparation: the compound was diluted to 50× of the final desired highest inhibitor concentration in reaction by 100% DMSO. 100 μl of this compound dilution was transferred to a well in a 96-well plate. For example, if the highest desired concentration was 5 μM, then 250 μM of compound DMSO solution was prepared in this step. For all compounds, the compound was serially diluted by transferring 10 μl to 70 μl of 100 DMSO in the next well and so forth for a total of 5 concentrations. 100 μl of 100% DMSO was added to two empty wells for no compound control and no enzyme control in the same 96-well plate. The plate was labeled as source plate. The intermediate plate was prepared by transferring 10 μl of compound from source plate to a new 96-well plate as the intermediate plate, adding 90 μl of 1× kinase buffer to each well of the intermediate plate, mixing the compounds in intermediate plate for 10 min on shaker. 5 μl of each well from the 96-well intermediate plate were transferred to a 384-well plate in duplicates. For example, A1 of the 96-well plate was transferred to A1 and A2 of the 384-well plate. A2 of the 96-well plate was transferred to A3 and A4 of the 384-well plate, and so on. • 4. Kinase reaction: The assay plate already contained 5 μl of compound in 10% DMSO. A 2.5× enzyme solution was prepared by adding kinases (cKit, RET, or AXL) and DTT in 1× kinase base buffer. 2.5× enzyme solution was transferred to the assay plate (by adding 10 μl of 2.5× enzyme solution to each well of the 384-well assay plate). The plate was incubated at room temperature for 10 min. 2.5× peptide solution was prepared by adding FAM-labeled peptide, ATP, MgCl2 in the 1× kinase base buffer. 2.5× peptide solution was added to the assay plate by adding 10 μl of 2.5× peptide solution to each well of the 384-well assay plate. The plate was incubated at 28° C. for the specified period of time. 25 μl of stop buffer was added to stop reaction. Data was collected on Caliper.

[1] = Mouse pharmacokinetics study (intravenous and oral); type: in vivo; conditions: CD-1 mice; for F / AUC / Cmax / Tmax: PO 25 mg/kg; for Vd / half-life / clearance / AUC / Cmax / Tmax: mouse, plasma; for Vd / half-life / clearance: IV 5 mg/kg; for clearance: read-out: Clp
Text: The test articles were formulated in […] Hydroxypropyl-beta-cyclodextrin, either as a clear solution or fine suspension.

HPK1 (MAP4K1) = HPK1 (MAP4K1) (Homo sapiens, UniProt Q92918); test: HPK1 (MAP4K1) kinase Lantha screen assay; type: biochemical
HPK1 (MAP4K1), sequence (Q92918 whole entry, species assumed): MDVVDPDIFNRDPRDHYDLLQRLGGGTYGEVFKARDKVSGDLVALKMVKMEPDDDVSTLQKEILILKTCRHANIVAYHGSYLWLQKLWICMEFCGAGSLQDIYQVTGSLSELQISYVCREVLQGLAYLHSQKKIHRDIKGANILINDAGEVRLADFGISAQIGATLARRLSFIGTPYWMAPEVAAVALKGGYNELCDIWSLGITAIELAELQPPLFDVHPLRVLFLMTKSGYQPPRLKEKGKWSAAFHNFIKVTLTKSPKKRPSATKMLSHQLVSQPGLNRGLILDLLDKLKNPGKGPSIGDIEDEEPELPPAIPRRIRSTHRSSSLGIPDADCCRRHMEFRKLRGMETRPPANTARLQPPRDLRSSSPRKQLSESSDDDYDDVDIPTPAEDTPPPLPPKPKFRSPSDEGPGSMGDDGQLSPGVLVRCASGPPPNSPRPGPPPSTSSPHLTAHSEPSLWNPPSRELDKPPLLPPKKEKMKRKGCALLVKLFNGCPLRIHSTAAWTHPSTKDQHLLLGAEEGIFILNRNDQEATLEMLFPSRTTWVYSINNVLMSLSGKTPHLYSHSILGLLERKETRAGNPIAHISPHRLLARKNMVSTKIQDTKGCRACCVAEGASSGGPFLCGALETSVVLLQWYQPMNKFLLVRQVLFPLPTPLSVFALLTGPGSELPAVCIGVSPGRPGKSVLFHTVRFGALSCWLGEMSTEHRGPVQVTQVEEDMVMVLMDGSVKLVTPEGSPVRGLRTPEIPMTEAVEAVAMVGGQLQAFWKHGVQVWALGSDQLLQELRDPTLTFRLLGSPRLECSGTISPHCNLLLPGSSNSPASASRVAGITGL
In short: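 Recombinant MAP4K1 preincubated 10 min with compound (6-point dilution, duplicates) in 50 mM HEPES pH 7.5, 10 mM MgCl2, then reacted with Fluorescein-PKC substrate and ATP for 90 min at room temperature. Antibody detection solution stopped reaction; after 60 min, TR-FRET read at ex 340 nm, em 520/495 nm.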

c-Kit, sequence (P10721 26-976): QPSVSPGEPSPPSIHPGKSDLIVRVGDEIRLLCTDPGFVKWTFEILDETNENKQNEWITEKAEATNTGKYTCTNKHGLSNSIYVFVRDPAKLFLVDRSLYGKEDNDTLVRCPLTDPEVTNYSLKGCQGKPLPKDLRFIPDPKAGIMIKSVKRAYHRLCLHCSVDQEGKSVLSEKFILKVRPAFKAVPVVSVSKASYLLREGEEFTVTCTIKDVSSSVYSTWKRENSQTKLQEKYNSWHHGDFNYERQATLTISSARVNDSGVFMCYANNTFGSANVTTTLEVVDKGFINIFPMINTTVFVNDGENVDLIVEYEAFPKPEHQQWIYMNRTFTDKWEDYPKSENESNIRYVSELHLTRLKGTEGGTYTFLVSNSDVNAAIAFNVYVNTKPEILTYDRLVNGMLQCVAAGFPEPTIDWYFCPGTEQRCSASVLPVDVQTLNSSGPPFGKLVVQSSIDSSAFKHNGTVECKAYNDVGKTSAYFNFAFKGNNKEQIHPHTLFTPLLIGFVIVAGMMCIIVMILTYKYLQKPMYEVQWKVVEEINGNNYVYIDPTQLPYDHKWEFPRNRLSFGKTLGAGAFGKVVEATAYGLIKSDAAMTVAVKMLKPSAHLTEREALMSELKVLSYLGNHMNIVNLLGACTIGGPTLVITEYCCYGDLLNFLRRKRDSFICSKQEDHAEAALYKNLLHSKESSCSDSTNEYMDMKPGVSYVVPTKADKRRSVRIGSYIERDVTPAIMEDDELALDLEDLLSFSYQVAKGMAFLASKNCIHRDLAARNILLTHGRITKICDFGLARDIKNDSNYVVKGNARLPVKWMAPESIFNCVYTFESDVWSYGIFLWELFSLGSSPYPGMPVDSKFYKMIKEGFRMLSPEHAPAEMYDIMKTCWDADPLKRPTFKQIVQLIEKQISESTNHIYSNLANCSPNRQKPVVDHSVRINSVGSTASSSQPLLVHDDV

Row | SMILES | IC50 (c-Kit) [µM] | AUC [1] [µg·h/mL] | Cmax [1] [µg/mL] | Tmax [1] [h] | other results
1 | Cn1cc(Nc2ncc3c(n2)N2CCN=C2C(c2ccc(Cl)cc2Cl)=C3)cn1 [Compound 102, 6-(2,4-dichlorophenyl)-N-(1-methyl-1H-pyrazol-4-yl)-8,9-dihydroimidazo[1′,2′:1,6]pyrido[2,3-d]pyrimidin-2-amine] | < 0.1 | – | – | – | –
2 | CN1CCC(n2cc(Nc3ncc4c(n3)N3CCN=C3C(c3ccc(Cl)cc3Cl)=C4)cn2)CC1 [Compound 103, 6-(2,4-dichlorophenyl)-N-(1-(1-methylpiperidin-4-yl)-1H-pyrazol-4-yl)-8,9-dihydroimidazo[1′,2′:1,6]pyrido[2,3-d]pyrimidin-2-amine] | < 0.1 | – | – | – | –
3 | Cc1ncc(Nc2ncc3c(n2)N2CCN=C2C(c2cc(NC(=O)c4cc(C(F)(F)F)ccn4)ccc2C)=C3)s1 [Compound 231, N-(4-methyl-3-(2-((2-methylthiazol-5-yl)amino)-8,9-dihydroimidazo[1′,2′:1,6]pyrido[2,3-d]pyrimidin-6-yl)phenyl)-4-(trifluoromethyl)picolinamide] | – | 16.2 ± 2.1 | 1.19 ± 0.302 | 1.67 ± 0.58 | IC50 (HPK1 (MAP4K1)): < 0.1 µM
4 | Cc1csc(Nc2ncc3c(n2)N2CCN=C2C(c2cc(NC(=O)c4cc(C(F)(F)F)ccn4)ccc2C)=C3)n1 [Compound 233, N-(4-methyl-3-(2-((4-methylthiazol-2-yl)amino)-8,9-dihydroimidazo[1′,2′:1,6]pyrido[2,3-d]pyrimidin-6-yl)phenyl)-4-(trifluoromethyl)picolinamide] | – | 12 ± 2.75 | 0.893 ± 0.258 | 6.67 ± 2.31 | IC50 (HPK1 (MAP4K1)): < 0.1 µM
5 | Cc1ccc(NC(=O)c2cc(C(F)(F)F)ccn2)cc1C1=Cc2cnc(Nc3ccn(C)n3)nc2N2CCN=C12 [Compound 234, N-(4-methyl-3-(2-((1-methyl-1H-pyrazol-3-yl)amino)-8,9-dihydroimidazo[1′,2′:1,6]pyrido[2,3-d]pyrimidin-6-yl)phenyl)-4-(trifluoromethyl)picolinamide] | – | 20.5 ± 2.19 | 1.63 ± 0.151 | 2 | IC50 (HPK1 (MAP4K1)): < 0.1 µM
6 | Cc1ccc(NC(=O)c2cc(C(F)(F)F)ccn2)cc1C1=Cc2cnc(Nc3cncs3)nc2N2CCN=C12 [Compound 256, N-(4-methyl-3-(2-(thiazol-5-ylamino)-8,9-dihydroimidazo[1′,2′:1,6]pyrido[2,3-d]pyrimidin-6-yl)phenyl)-4-(trifluoromethyl)picolinamide] | – | 11.7 ± 1.43 | 1.18 ± 0.193 | 1.33 ± 0.58 | –
7 | CNc1ncc2c(n1)N1CCN=C1C(Oc1ccc(NC(=O)NC3CC3)cc1)=C2 [Compound 312, 1-cyclopropyl-3-(4-((2-(methylamino)-8,9-dihydroimidazo[1′,2′:1,6]pyrido[2,3-d]pyrimidin-6-yl)oxy)phenyl)urea] | > 10 | – | – | – | –
8 | CNc1ncc2c(n1)N1CCN=C1C(Oc1ccc(NC(=O)Nc3ccc(Cl)c(C(F)(F)F)c3)cc1)=C2 [Compound 313, 1-(4-chloro-3-(trifluoromethyl)phenyl)-3-(4-((2-(methylamino)-8,9-dihydroimidazo[1′,2′:1,6]pyrido[2,3-d]pyrimidin-6-yl)oxy)phenyl)urea] | 0.1 to 10 | – | – | – | –
9 | CNc1ncc2c(n1)N1CCN=C1C(c1cc(NC(=O)Nc3ccccc3)c(F)cc1Br)=C2 [Compound 326, 1-(4-bromo-2-fluoro-5-(2-(methylamino)-8,9-dihydroimidazo[1′,2′:1,6]pyrido[2,3-d]pyrimidin-6-yl)phenyl)-3-phenylurea] | < 0.1 | – | – | – | –
10 | CNc1ncc2c(n1)N1CCN=C1C(c1cc(NC(=O)Nc3ccccc3Cl)c(F)cc1Br)=C2 [Compound 327, 1-(4-bromo-2-fluoro-5-(2-(methylamino)-8,9-dihydroimidazo[1′,2′:1,6]pyrido[2,3-d]pyrimidin-6-yl)phenyl)-3-(2-chlorophenyl)urea] | < 0.1 | – | – | – | –

More lines, main results first:

Row | IC50 (c-Kit) [µM] | AUC [1] [µg·h/mL] | Cmax [1] [µg/mL] | Tmax [1] [h] | SMILES | other results
11 | 0.1 to 10 | – | – | – | CNc1ncc2c(n1)N1CCN=C1C(c1c(C)ccc(NC(=O)c3cc(C(F)(F)F)ccn3)c1F)=C2 [Compound 140, N-(2-fluoro-4-methyl-3-(2-(methylamino)-8,9-dihydroimidazo[1′,2′:1,6]pyrido[2,3-d]pyrimidin-6-yl)phenyl)-4-(trifluoromethyl)picolinamide] | –
12 | – | 6.32 ± 4.58 | 1.1 ± 0.497 | 1.33 ± 0.58 | CNc1ncc2c(n1)N1CCN=C1C(c1cc(NC(=O)c3cc(C(C)(C)C#N)ccn3)ccc1C)=C2 [Compound 163, 4-(2-cyanopropan-2-yl)-N-(4-methyl-3-(2-(methylamino)-8,9-dihydroimidazo[1′,2′:1,6]pyrido[2,3-d]pyrimidin-6-yl)phenyl)picolinamide] | F [1]: 74.6 ± 54%; Vd [1]: 6.61 ± 1.04 L/kg; half-life [1]: 1.57 ± 0.2 h; clearance [1]: 2.93 ± 0.348 L/h/kg; IC50 (HPK1 (MAP4K1)): < 0.1 µM
13 | – | 8.61 ± 0.903 | 1.76 ± 0.38 | 2 | Cc1cc(F)c(NC(=O)c2cc(C(C)(C)C#N)ccn2)cc1C1=Cc2cnc(NC3COC3)nc2N2CCN=C12 [Compound 181, 4-(2-cyanopropan-2-yl)-N-(2-fluoro-4-methyl-5-(2-(oxetan-3-ylamino)-8,9-dihydroimidazo[1′,2′:1,6]pyrido[2,3-d]pyrimidin-6-yl)phenyl)picolinamide] | F [1]: 58.1 ± 6.1%; Vd [1]: 4.78 ± 1.21 L/kg; half-life [1]: 2.01 ± 0.82 h; clearance [1]: 1.71 ± 0.228 L/h/kg; IC50 (HPK1 (MAP4K1)): < 0.1 µM
14 | < 0.1 | – | – | – | O=C(Nc1cc(C2=Cc3cnc(NC4COC4)nc3N3CCN=C23)c(Br)cc1F)c1cc(C(F)(F)F)ccn1 [Compound 188, N-(4-bromo-2-fluoro-5-(2-(oxetan-3-ylamino)-8,9-dihydroimidazo[1′,2′:1,6]pyrido[2,3-d]pyrimidin-6-yl)phenyl)-4-(trifluoromethyl)picolinamide] | –
15 | – | 8.16 ± 1.27 | 0.839 ± 0.059 | 1.67 ± 0.58 | Cc1cc(F)c(NC(=O)c2cc(C(C)(C)C#N)ccn2)cc1C1=Cc2cnc(Nc3cnn(C)c3)nc2N2CCN=C12 [Compound 202, 4-(2-cyanopropan-2-yl)-N-(2-fluoro-4-methyl-5-(2-((1-methyl-1H-pyrazol-4-yl)amino)-8,9-dihydroimidazo[1′,2′:1,6]pyrido[2,3-d]pyrimidin-6-yl)phenyl)picolinamide] | F [1]: 56 ± 9%; Vd [1]: 9.64 ± 1.99 L/kg; half-life [1]: 3.99 ± 0.72 h; clearance [1]: 1.67 ± 0.06 L/h/kg
16 | – | 36.9 ± 4.06 | 3.06 ± 0.253 | 1.67 ± 0.58 | Cc1cc(Nc2ncc3c(n2)N2CCN=C2C(c2cc(NC(=O)c4cc(C(F)(F)F)ccn4)ccc2C)=C3)sn1 [Compound 242, N-(4-methyl-3-(2-((3-methylisothiazol-5-yl)amino)-8,9-dihydroimidazo[1′,2′:1,6]pyrido[2,3-d]pyrimidin-6-yl)phenyl)-4-(trifluoromethyl)picolinamide] | –
17 | > 10 | – | – | – | CNc1ncc2c(n1)N1CCN=C1C(c1cc(NC(=O)NC3CC3)c(F)cc1C)=C2 [Compound 315, 1-cyclopropyl-3-(2-fluoro-4-methyl-5-(2-(methylamino)-8,9-dihydroimidazo[1′,2′:1,6]pyrido[2,3-d]pyrimidin-6-yl)phenyl)urea] | –
18 | < 0.1 | – | – | – | O=C(Nc1ccccc1)Nc1cc(C2=Cc3cnc(NC4COC4)nc3N3CCN=C23)c(Br)cc1F [Compound 328, 1-(4-bromo-2-fluoro-5-(2-(oxetan-3-ylamino)-8,9-dihydroimidazo[1′,2′:1,6]pyrido[2,3-d]pyrimidin-6-yl)phenyl)-3-phenylurea] | –
19 | < 0.1 | – | – | – | O=C(Nc1cc(C2=Cc3cnc(NC4COC4)nc3N3CCN=C23)c(Br)cc1F)Nc1ccccc1Cl [Compound 329, 1-(4-bromo-2-fluoro-5-(2-(oxetan-3-ylamino)-8,9-dihydroimidazo[1′,2′:1,6]pyrido[2,3-d]pyrimidin-6-yl)phenyl)-3-(2-chlorophenyl)urea] | –
20 | < 0.1 | – | – | – | CCNc1ncc2c(n1)N1CCN=C1C(c1cc(NC(=O)Nc3ccccc3Cl)c(F)cc1C)=C2 [Compound 332, 1-(2-chlorophenyl)-3-(5-(2-(ethylamino)-8,9-dihydroimidazo[1′,2′:1,6]pyrido[2,3-d]pyrimidin-6-yl)-2-fluoro-4-methylphenyl)urea] | –
